Laboratory results taken from PubChem BioAssay (NCI).
“And” between values parts separate entries of the source, which are not always exact repeats. Equal entries are not always repeated.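 Five concentrations, 48 hours, 96-well plates. The concentration for 50% growth inhibition is given as GI50. TGI: concentration producing complete growth inhibition.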

Experiments:
Experiment in all cases: DTP human tumour cell line panel, 48 h
SR leukemia = tested on: SR leukemia
SK-MEL-28 melanoma = tested on: SK-MEL-28 melanoma
RPMI-8226 leukemia = tested on: RPMI-8226 leukemia
MOLT-4 leukemia = tested on: MOLT-4 leukemia
K-562 leukemia = tested on: K-562 leukemia
NCI-H23 lung = tested on: NCI-H23 lung
HOP-62 NSCLC = tested on: HOP-62 NSCLC
NCI-H460 lung = tested on: NCI-H460 lung
MDA-MB-231 breast = tested on: MDA-MB-231 breast
IGROV1 ovarian = tested on: IGROV1 ovarian

Row | Compound | GI50 (SR leukemia) [nM] | TGI (SR leukemia) [µM] | GI50 (SK-MEL-28 melanoma) [µM] | TGI (SK-MEL-28 melanoma) [µM] | GI50 (RPMI-8226 leukemia) | TGI (RPMI-8226 leukemia) [µM] | GI50 (MOLT-4 leukemia) [µM] | TGI (MOLT-4 leukemia) [µM] | GI50 (K-562 leukemia) [nM] | TGI (K-562 leukemia) [µM] | GI50 (NCI-H23 lung) | TGI (NCI-H23 lung) | GI50 (HOP-62 NSCLC) [µM] | TGI (HOP-62 NSCLC) [µM] | GI50 (NCI-H460 lung) [µM] | TGI (NCI-H460 lung) [µM] | GI50 (MDA-MB-231 breast) | TGI (MDA-MB-231 breast) | GI50 (IGROV1 ovarian) [µM] | TGI (IGROV1 ovarian) [µM]
1 | COc1cc(NC(=O)CSc2nc3ccc(C)cc3c(=O)n2Cc2ccccc2)cc(OC)c1OC | 52700 | > 100 | 7.04 | 59.7 | 69300 nM | > 100 | > 100 | > 100 | > 100000 | > 100 | 8.3 µM | 42.3 µM | 2.3 | 5.8 | 7.24 | > 100 | 3.42 µM | > 100 µM | 32.5 | > 100
2 | O=Cc1ccccc1B(O)O | – | 2.08 | – | > 100 | – | 0.0472 | – | 26.1 | – | > 100 | – | – | – | > 100 | – | > 100 | – | > 100 µM | – | > 100
3 | Oc1ccccc1CNCC12CC3CC(CC(C3)C1)C2 | 20400 | 58.6 | 23.6 | 52.7 | 18100 nM | 45 | 24.5 | 70.2 | 5390 | > 100 | 32.4 µM | > 100 µM | 28.8 | 84 | 23.3 | 57.7 | 27.7 µM | > 100 µM | 41.8 | > 100
4 | COc1cccc2c1C(=O)c1c(O)c3c(c(O)c1C2=O)C[C@@](O)(C(=O)CO)C[C@@H]3O[C@H]1C[C@H](N)[C@@H](O)[C@H](C)O1 | 13.7 | 1.07 | 0.351 | 1.35 | 161 nM | 3.61 | 0.0326 | 0.285 | 147 | 5.05 | 0.122 µM | 0.953 µM | 0.16 | 2.37 | 0.0231 | 17.1 | 0.595 µM | 12.1 µM | 0.175 | 21.2
5 | Cc1cc2[nH]c(=O)c3c4ccccc4cn3c2cc1C | 2600 | 5.75 | 14.8 | 35.1 | 6750 nM | 29.8 | 5.68 | 19.4 | – | – | 14.9 µM | 32.2 µM | 2.71 | 8.18 | 4.43 | 20.3 | 8.34 µM | 23.7 µM | 12.3 | 26.6
6 | Cc1cc(=O)[nH]c2cc3c(c4c(n3Cc3ccc(Cl)cc3Cl)CC(C)(C)CC4=O)c(O)c12 | 25200 | > 100 | > 100 | > 100 | > 100000 nM | > 100 | > 100 | > 100 | > 100000 | > 100 | 39.6 µM | > 100 µM | 77.7 | > 100 | 79.5 | > 100 | > 100 µM | > 100 µM | > 100 | > 100
7 | Clc1ccc2nnnn2n1 | 1460 | 8 | 12.3 | 63 | 3540 nM | 28 | 3.26 | 44.5 | 2770 | 17.4 | 5.98 µM | 35.4 µM | 4.51 | 33.1 | 3.26 | 12 | 2.64 µM | 7.01 µM | 4.05 | 50.1
8 | CCN1C(=O)N(c2ccccc2)C2NC(=S)N(/N=C/C=C/c3ccccc3)C21 (configuration not stated) | 114 | > 100 | 1.74 | > 100 | 451 nM | > 100 | 0.38 | > 100 | 155 | > 100 | 0.569 µM | > 100 µM | 0.4 | > 100 | 0.377 | > 36.1 | 0.715 µM | > 100 µM | 0.599 | > 58.2
9 | S=c1ssc(Oc2ccccc2)c1Cl | 605 | > 100 | 11.9 | 32 | 950 nM | 7.7 | 0.73 | > 100 | 2680 | > 100 | 12.6 µM | 50.9 µM | 37 | > 100 | 16.9 | 33.1 | 14.2 µM | 29.6 µM | – | –
10 | COc1cc(-n2cc(-c3ccc(Cl)cc3)nc2SCc2cccc(C#N)c2)cc(OC)c1OC | > 100000 | > 100 | 31.2 | > 100 | > 100000 nM | > 100 | 37.5 | > 100 | > 100000 | > 100 | 37.5 µM | > 100 µM | 39.2 | > 100 | 95.5 | > 100 | 73.5 µM | > 100 µM | 54.9 | > 100
11 | Oc1[nH]c2c(Br)cccc2c1C1=Nc2ccccc2/C1=N/OCCN1CCCC1 | 373 | 1.77 | 1.92 | 5.49 | 1350 nM and 1590 nM | – | 0.354 | 3.18 | 424 | – | 1.02 µM and 0.959 µM | 4.17 µM and 36.5 µM | 0.704 | 2.65 | 0.325 | 2.4 | 1.31 µM and 1.21 µM | 4.95 µM and 7.97 µM | 0.469 | 2.98
12 | CC(=O)OCC(=O)[C@@]12OC(C)(C)O[C@@H]1C[C@H]1[C@@H]3CC=C4C[C@@H](O)CC[C@]4(C)[C@H]3CC[C@@]12C | – | > 100 | – | > 100 | – | > 100 | – | > 100 | – | > 100 | – | > 100 µM | – | > 100 | – | – | – | > 100 µM | – | > 100
13 | O=C1C2C(c3ccccc3)NC(c3ccccc3)C1C(c1ccccc1)NC2c1ccccc1 (configuration not stated) | – | > 100 | – | > 100 | – | > 100 | – | > 100 | – | > 100 | – | > 100 µM | – | > 100 | – | > 100 | – | > 100 µM | – | > 100
14 | C=C1C(=O)O[C@H]2[C@H](OC(C)=O)[C@@H](C)CCC/C(C)=C/CC[C@@]3(C)O[C@@H]3C[C@@H]12 | – | 6.02 | – | 11.1 | – | 6.5 | – | 10.1 | – | > 100 | – | 10.8 µM | – | 43.6 | – | 19.7 | – | 10.6 µM | – | 18.4
